# Read-outs that look alike come from different tables or passages of the source.
# Legend:
# SARS-CoV-2 USA-WA1/2020 [1] = assay: CPE assay, neutral red, Vero E6 cells with 2 μM CP-100356, USA-WA1/2020; format: cell-based; conditions: for Percent Cytopathic Effect (Neutral Red): USA-WA1/2020
# [2] = tested on: SARS-CoV-2 Delta (B.1.617.2); assay: CPE assay, neutral red, Vero E6 cells with 2 μM CP-100356, Delta; format: cell-based; conditions: Delta (B1.617.2), Vero E6, 2 μM CP-100356
# SARS-CoV-2 USA-WA1/2020 [3] = assay: microbe, parasite or virus in culture; format: cell-based; conditions: for Virus Titer: USA-WA1/2020
# [4] = tested on: SARS-CoV-2 Delta (B.1.617.2); assay: microbe, parasite or virus in culture; format: cell-based; conditions: Delta (B1.617.2), Caco-2
# [5] = tested on: SARS-CoV-2 Omicron (B.1.1.529); assay: microbe, parasite or virus in culture; format: cell-based; conditions: Omicron (B1.1.529), Caco-2
# Vero E6 cells [6] = conditions: for Percent Cytotoxicity (Neutral Red): Vero E6
# Caco-2 cells = conditions: for Percent Cytotoxicity (Neutral Red): Caco-2
# PLpro from SARS-CoV-2 [7] = target: T1, PLpro from SARS-CoV-2 (Severe acute respiratory syndrome coronavirus 2, UniProt P0DTD1); assay: biochemical; format: biochemical
# PLpro from SARS-CoV-2 [8] = target: T1, PLpro from SARS-CoV-2; assay: biochemical; format: biochemical; design: mean (kobs plot, Supplementary Figure 6 II): unit: min^-1
# PLpro = PLpro (Severe acute respiratory syndrome coronavirus 2, UniProt P0DTD1); assay: Intact protein ESI-MS to assess covalent adduct formation; format: binding, SARS-CoV-2; design: unit not given here
# [9] = tested on: SARS-CoV-2 isolate USA-WA1/2020; conditions: read-out: cytopathic effect, % cell viability, duplicate wells
# Vero E6 cells [10] = conditions: African green monkey, 48 h
# in vitro = conditions: African green monkey, cytotoxicity, %cell viability
# [11] = tested on: SARS-CoV-2 isolate USA-WA1/2020; assay: microbe, parasite or virus in culture; conditions: duplicate wells
smiles,measurement,setting,value
O=c1nc(NO)ccn1[C@@H]1O[C@H](CO)[C@@H](O)[C@H]1O [EIDD-1931],EC50,"SARS-CoV-2 USA-WA1/2020 [1]; USA-WA1/2020, Vero E6, 2 μM CP-100356",0.3 µM
same,Percent Cytopathic Effect (Neutral Red),SARS-CoV-2 USA-WA1/2020 [1]; 0.1 µg/mL,95.9%
same,Percent Cytopathic Effect (Neutral Red),SARS-CoV-2 USA-WA1/2020 [1]; 1 µg/mL,0.0%
same,Percent Cytopathic Effect (Neutral Red),SARS-CoV-2 USA-WA1/2020 [1]; 10 µg/mL,0.559%
same,Percent Cytopathic Effect (Neutral Red),SARS-CoV-2 USA-WA1/2020 [1]; 100 µg/mL,0.0%
same,EC50,[2],0.31 µM
same,EC90,"SARS-CoV-2 USA-WA1/2020 [3]; USA-WA1/2020, Caco-2",0.12 µM
same,Virus Titer,SARS-CoV-2 USA-WA1/2020 [3]; 0.1 µg/mL,3.7 CCID50/mL (Log10)
same,Virus Titer,SARS-CoV-2 USA-WA1/2020 [3]; 1 µg/mL,<0.7 CCID50/mL (Log10)
same,Virus Titer,SARS-CoV-2 USA-WA1/2020 [3]; 10 µg/mL,<0.7 CCID50/mL (Log10)
same,Virus Titer,SARS-CoV-2 USA-WA1/2020 [3]; 32 µg/mL,<0.7 CCID50/mL (Log10)
same,Virus Titer,SARS-CoV-2 USA-WA1/2020 [3]; 100 µg/mL,<0.7 CCID50/mL (Log10)
same,EC90,[4],4.9 µM
same,EC90,[5],2.9 µM
same,CC50,"Vero E6 cells [6]; Vero E6, 2 μM CP-100356, Delta rows",> 100 µM
same,CC50,"Vero E6 cells [6]; Vero E6, 2 μM CP-100356, Omicron rows",> 100 µM
same,CC50,"Vero E6 cells [6]; Vero E6, 2 μM CP-100356, USA-WA1/2020 rows",> 100 µM
same,Percent Cytotoxicity (Neutral Red),"Vero E6 cells [6]; SARS2-733 (Delta set), 0.1 µg/mL",2.1%
same,Percent Cytotoxicity (Neutral Red),"Vero E6 cells [6]; SARS2-733 (Delta set), 1 µg/mL",5.1%
same,Percent Cytotoxicity (Neutral Red),"Vero E6 cells [6]; SARS2-733 (Delta set), 10 µg/mL",36.7%
same,Percent Cytotoxicity (Neutral Red),"Vero E6 cells [6]; SARS2-733 (Delta set), 100 µg/mL",48.2%
same,Percent Cytotoxicity (Neutral Red),"Vero E6 cells [6]; SARS2-733 (Omicron set), 0.1 µg/mL",0.0%
same,Percent Cytotoxicity (Neutral Red),"Vero E6 cells [6]; SARS2-733 (Omicron set), 1 µg/mL",0.0%
same,Percent Cytotoxicity (Neutral Red),"Vero E6 cells [6]; SARS2-733 (Omicron set), 10 µg/mL",28.4%
same,Percent Cytotoxicity (Neutral Red),"Vero E6 cells [6]; SARS2-733 (Omicron set), 100 µg/mL",45.6%
same,Percent Cytotoxicity (Neutral Red),"Vero E6 cells [6]; SARS2-735, 0.1 µg/mL",0.0%
same,Percent Cytotoxicity (Neutral Red),"Vero E6 cells [6]; SARS2-735, 1 µg/mL",0.0%
same,Percent Cytotoxicity (Neutral Red),"Vero E6 cells [6]; SARS2-735, 10 µg/mL",23.0%
same,Percent Cytotoxicity (Neutral Red),"Vero E6 cells [6]; SARS2-735, 100 µg/mL",38.9%
same,CC50,"Caco-2 cells; Caco-2, Delta rows",> 100 µM
same,CC50,"Caco-2 cells; Caco-2, Omicron rows",> 100 µM
same,CC50,"Caco-2 cells; Caco-2, USA-WA1/2020 rows",94 µM
same,Percent Cytotoxicity (Neutral Red),"Caco-2 cells; SARS2-740 (Delta set), 0.1 µg/mL",7.9%
same,Percent Cytotoxicity (Neutral Red),"Caco-2 cells; SARS2-740 (Delta set), 1 µg/mL",14.7%
same,Percent Cytotoxicity (Neutral Red),"Caco-2 cells; SARS2-740 (Delta set), 10 µg/mL",5.3%
same,Percent Cytotoxicity (Neutral Red),"Caco-2 cells; SARS2-740 (Delta set), 32 µg/mL",15.2%
same,Percent Cytotoxicity (Neutral Red),"Caco-2 cells; SARS2-740 (Delta set), 100 µg/mL",30.0%
same,Percent Cytotoxicity (Neutral Red),"Caco-2 cells; SARS2-740 (Omicron set), 0.1 µg/mL",0.118%
same,Percent Cytotoxicity (Neutral Red),"Caco-2 cells; SARS2-740 (Omicron set), 1 µg/mL",4.7%
same,Percent Cytotoxicity (Neutral Red),"Caco-2 cells; SARS2-740 (Omicron set), 10 µg/mL",1.2%
same,Percent Cytotoxicity (Neutral Red),"Caco-2 cells; SARS2-740 (Omicron set), 32 µg/mL",6.1%
same,Percent Cytotoxicity (Neutral Red),"Caco-2 cells; SARS2-740 (Omicron set), 100 µg/mL",24.6%
same,Percent Cytotoxicity (Neutral Red),"Caco-2 cells; SARS2-740 (USA-WA1/2020 set), 0.1 µg/mL",15.6%
same,Percent Cytotoxicity (Neutral Red),"Caco-2 cells; SARS2-740 (USA-WA1/2020 set), 1 µg/mL",13.4%
same,Percent Cytotoxicity (Neutral Red),"Caco-2 cells; SARS2-740 (USA-WA1/2020 set), 10 µg/mL",13.8%
same,Percent Cytotoxicity (Neutral Red),"Caco-2 cells; SARS2-740 (USA-WA1/2020 set), 32 µg/mL",17.6%
same,Percent Cytotoxicity (Neutral Red),"Caco-2 cells; SARS2-740 (USA-WA1/2020 set), 100 µg/mL",51.9%
"COC(=O)/C=C/C(=O)NNC(=O)CCc1ccc(NC(C)=O)cc1C(=O)N[C@H](C)c1cccc2ccccc12 [Compound 8, methyl-(R,E)-4-(2-(3-(4-acetamido-2-((1-(naphthalen-1-yl)ethyl)carbamoyl)phenyl)propanoyl)hydrazineyl)-4-oxobut-2-enoate]",remaining activity at 0.06 µM,"PLpro from SARS-CoV-2 [7]; 0.5 h, inhibitor 0.06 uM",89.5%
same,remaining activity at 0.2 µM,"PLpro from SARS-CoV-2 [7]; 0.5 h, inhibitor 0.20 uM",57.8%
same,IC50,"PLpro from SARS-CoV-2 [7]; after 30-min incubation, […]",0.23 µM
same,kinact/KI,PLpro from SARS-CoV-2 [8],9000 M⁻¹ s⁻¹
same,remaining activity at 0.1 µM,"PLpro from SARS-CoV-2 [8]; 5 min, read-out: PLpro activity after preincubation, inhibitor 0.1 uM, preincubation 5 min",79.5%
same,remaining activity at 0.1 µM,"PLpro from SARS-CoV-2 [8]; 10 min, read-out: PLpro activity after preincubation, inhibitor 0.1 uM, preincubation 10 min",71.5%
same,remaining activity at 0.1 µM,"PLpro from SARS-CoV-2 [8]; 0.5 h, read-out: PLpro activity after preincubation, inhibitor 0.1 uM, preincubation 30 min",66.2%
same,remaining activity at 0.1 µM,"PLpro from SARS-CoV-2 [8]; 1 h, read-out: PLpro activity after preincubation, inhibitor 0.1 uM, preincubation 60 min",64.4%
same,remaining activity at 0.2 µM,"PLpro from SARS-CoV-2 [8]; 1 h, read-out: PLpro activity after preincubation, inhibitor 0.2 uM, preincubation 60 min",12.6%
same,remaining activity at 0.1 µM,"PLpro from SARS-CoV-2 [8]; […], read-out: PLpro activity after preincubation, inhibitor 0.1 uM, preincubation 15 min",66.3%
same,remaining activity at 0.1 µM,"PLpro from SARS-CoV-2 [8]; […], read-out: PLpro activity after preincubation, inhibitor 0.1 uM, preincubation 45 min",72.5%
same,remaining activity at 0.1 µM,"PLpro from SARS-CoV-2 [8]; […], read-out: PLpro activity after preincubation, inhibitor 0.1 uM, preincubation 90 min",44.6%
same,Time dep. (time-dependent inhibition),"PLpro from SARS-CoV-2 [8]; fluorogenic peptide assay, varied preincubation time",Yes
same,"mean (kobs plot, Supplementary Figure 6 II)",PLpro from SARS-CoV-2 [8]; inhibitor 0.10 uM,0.0091
same,"mean (kobs plot, Supplementary Figure 6 II)",PLpro from SARS-CoV-2 [8]; inhibitor 0.20 uM,0.0652
same,Measured adduct mass,PLpro,531
same,inhibition,"[9]; [inhibitor] 2.08 uM, 2.08 µM",0.9%
same,inhibition,"[9]; [inhibitor] 8.33 uM, 8.33 µM",2.82%
same,"cytotoxicity, %cell viability",Vero E6 cells [10]; 2.08 µM,78.830%
same,"cytotoxicity, %cell viability",Vero E6 cells [10]; 8.33 µM,82.620%
same,"cytotoxicity, %cell viability",Vero E6 cells [10]; 16.67 µM,76.260%
same,"cytotoxicity, %cell viability",Vero E6 cells [10]; 33.33 µM,75.370%
same,"viability at 48 h, 2.08 µM",in vitro,83.7%
same,"viability at 48 h, 8.33 µM",in vitro,87.2%
same,"viability at 48 h, 16.67 µM",in vitro,82.6%
same,"viability at 48 h, 33.33 µM",in vitro,75.6%
same,inhibition at 2.08 µM,"[11]; Severe acute respiratory syndrome coronavirus 2, Vero C1008, read-out: cytopathic effect, % cell viability, [inhibitor] 2.08 uM",1.22%
same,inhibition at 8.33 µM,"[11]; Severe acute respiratory syndrome coronavirus 2, Vero C1008, read-out: cytopathic effect, % cell viability, [inhibitor] 8.33 uM",4.63%
